Measurements: BindingDB's records for doi:10.1021/acs.jmedchem.1c00049 (Genentech, 2021)

How the values were obtained:
[1] = Displacement of [3H]GX-545 Nav1.7 (unknown origin) expressed in HEK cells by liquid scintillation counting based radioligand competition assay
[2] = Inhibition of human Nav1.7 expressed in HEK293 cells incubated for 1 hr in presence of veratridine by sodium influx assay

Structure (SMILES)	IC50 [1]	IC50 [2]
O=C(NS(=O)(=O)C1COC1)c1cc(C2CC2)c(OCC23CC4CC(CC(C4)C2)C3)cc1F	4 nM	38 nM
CS(=O)(=O)NC(=O)c1cc(C2CC2)c(OCC2CCN(C(c3ccccc3)c3ccccc3)CC2)cc1F	3.6 nM	66 nM
CS(=O)(=O)NC(=O)c1cc(C2CC2)c(OCC2CCN(Cc3ccccc3)CC2)cc1F	140 nM	3200 nM
CS(=O)(=O)NC(=O)c1cc(C2CC2)c(OCC2CN(C(c3ccccc3)c3ccccc3)C2)cc1F [US8952169, 440]	5.5 nM	23 nM
CS(=O)(=O)NC(=O)c1cc(C2CC2)c(OCC2CCN(Cc3ccc(Cl)cc3)CC2)cc1F [US9546164, 104]	22 nM	42 nM
CS(=O)(=O)NC(=O)c1cc(C2CC2)c(OCC2CCN(Cc3ccc(OC(F)(F)F)cc3)CC2)cc1F [US9546164, 135]	7.7 nM	31 nM
CS(=O)(=O)NC(=O)c1cc(C2CC2)c(OCC2CCN(Cc3cc(Cl)cc(Cl)c3)CC2)cc1F [US9546164, 139]	2.4 nM	120 nM
CS(=O)(=O)NC(=O)c1cc(C2CC2)c(OCC2CCN(C(=O)c3cc(Cl)cc(Cl)c3)CC2)cc1F [US9546164, 253]	9.8 nM	34 nM

Now those with a lower IC50 [1], led by results:

IC50 [1]	IC50 [2]	Structure (SMILES)
1.1 nM	14 nM	O=C(NS(=O)(=O)C1CC1)c1cc(C2CC2)c(OCC23CC4CC(CC(C4)C2)C3)cc1F [US8952169, 148]
2.2 nM	160 nM	O=C(NS(=O)(=O)N1CCCC1)c1cc(C2CC2)c(OCC23CC4CC(CC(C4)C2)C3)cc1F [US8952169, 154]
2.3 nM		O=C(NS(=O)(=O)N1CCOCC1)c1cc(C2CC2)c(OCC23CC4CC(CC(C4)C2)C3)cc1F [US8952169, 155]
0.8 nM	26 nM	CC(C)(c1cc(Cl)cc(Cl)c1)N1CCC(COc2cc(F)c(C(=O)NS(C)(=O)=O)cc2C2CC2)CC1 [US9546164, 209]
